Test results from PMC8472562, “Oral Peptide Vaccine against Hookworm Infection: Correlation of Antibody Titers with Protective Efficacy” (Vaccines, 2021).
“Also recorded” adds a separate entry of the source. Bridge positions count the residues as written; N and C are the ends. I, II: the chains in the order shown.

Columns and labels:
p3 epitope [1] = type: in vivo, BALB/c mice; settings: oral gavage 4 × 100 µg, two-week intervals, n = 8/group; ELISA; compared to PBS group or between groups
p3 epitope [2] = type: in vivo, BALB/c mice; settings: oral gavage 4 × 100 µg; ELISA
bovine trypsin [3] = tested on: T1, bovine trypsin; assay: In vitro stability against proteolysis by bovine trypsin; type: in vitro ADME; settings: bovine trypsin 1000 U solution, 1 mM CaCl2 in PBS, 37 °C with shaking, analytical HPLC
T1 construct: purchased Sigma-Aldrich
Experimental: (§1) Enzyme 1000 U solution was prepared from bovine trypsin (10,000 U/mg, Sigma-Aldrich, Castle Hill, NSW, Australia) with 1 mM CaCl2 in 1 mL PBS, as reported previously. After preparation, 100 µL of enzyme solution was added to 400 µL of peptide solution (1.25 mg/mL) in PBS and incubated at 37 °C with shaking. To inhibit enzyme activity, 40 µL of TFA and acetonitrile mixture (1:2) was added to 60 µL aliquots of the mixture at each interval. The solution was analyzed by analytical HPLC with a calibration curve employing the compound’s peak at its characteristic retention time to determine intact compound concentration.

mutant APR-1M74 = assay: Serum anti-APR-1 IgG ELISA after oral immunization; type: in vivo, BALB/c mice; settings: oral gavage 4 × 100 µg, two-week intervals, n = 8/group
[4] = tested on: Nippostrongylus brasiliensis; type: in vivo, BALB/c mice; settings: oral 4 × 100 µg; 750 L3 larvae s.c.; 7 days post-infection; one-way ANOVA and Mann Whitney U-test against negative control
[5] = Particle size distribution by dynamic light scattering and TEM; type: physicochemical; settings: 0.2 mg/mL in PBS, 25 °C, angle 173°
Experimental: Particle size distribution was evaluated by preparing a 0.2 mg/mL solution of each pure compound in PBS and measured using dynamic light scattering (DLS; Zetasizer Nano ZP) at 25 °C and an angle of 173°.
Compounds were evaluated by transmission electron microscopy using a JEM-1010 microscope (JEOL LTD, Tokyo, Japan) at 100 kV. The images were analyzed using AnalySIS® software (Megaview III, Munster, Germany).

[6] = Secondary structure by ATR-FTIR; type: physicochemical; settings: 2 mg/mL in PBS, 25 °C, triplicate spectra, second derivative
Experimental: The compounds’ secondary structures were evaluated according to the methodology of Yang et al.. Solutions of each compound in PBS (2 mg/mL) were prepared and placed on the diamond-attenuated total reflectance accessory of the ATR-FTIR, and absorbance spectra were collected from 500 and 4000 cm^−1, in triplicate, at 25 °C and 4 cm^−1 resolution. The first and second derivative of the absorbance spectra were generated and analyzed using Originpro 2020 software. The second derivative secondary structure component-peak assignment was also detected and quantified using Originpro 2020 software.

bovine trypsin [7] = target: T2, bovine trypsin (Bos taurus, UniProt P00760); assay: In vitro stability against proteolysis by bovine trypsin; type: in vitro ADME; settings: bovine trypsin in PBS, 37 °C
T2 construct: purchased Sigma-Aldrich
T2 sequence (P00760 24-246): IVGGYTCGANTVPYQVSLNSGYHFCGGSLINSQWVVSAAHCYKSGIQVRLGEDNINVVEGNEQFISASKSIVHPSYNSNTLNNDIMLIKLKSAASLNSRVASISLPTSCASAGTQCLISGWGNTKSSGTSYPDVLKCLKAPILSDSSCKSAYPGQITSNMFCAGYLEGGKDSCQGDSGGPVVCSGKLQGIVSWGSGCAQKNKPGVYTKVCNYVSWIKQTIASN
Experimental: as §1

Ac-LLLLLLLLLLTSLIAGPKAQVEAIQKYIGAELKKLIPNASLIENCTKAELSKKKK-NH2 (N-terminus and C-terminus assumed) [LL10]
serum p3-IgG titers (p3 epitope [1]): highest; also recorded: significantly higher
mucosal antibody responses (saliva and fecal extracts, IgA and IgG) (p3 epitope [2]): detectable
metabolised at 0.5 h, 1 mg/mL (bovine trypsin [3]; 100 µL enzyme + 400 µL peptide 1.25 mg/mL, 30 min, read-out: degradation after 30 min of incubation with trypsin): 25%
remaining at 1 h, 1 mg/mL (bovine trypsin [3]; peptide 1.25 mg/mL, 60 min, read-out: conjugate remained intact after 60 min): 15%
serum anti-APR-1 IgG titers (mutant APR-1M74): highest
parasite and egg numbers after challenge infection, in words [4]: highest significant reduction in worm burden; also recorded: significantly reduced
polydispersity index (PDI) ([5]; DLS): 0.36 ± 0.1
nanoparticle size ([5]; self-assembled, electron microscopy and DLS, LCP, BL10, LL10 also formed aggregates): 22 nm
β-sheet contribution [6]: 6%

Ac-TSLIAGPKAQVEAIQKYIGAELKKLIPNASLIENCTKAELSKKKK-NH2 [p3-P25]
time to almost complete degradation by trypsin (bovine trypsin [7]; analytical HPLC): less than 30 min

I: Ac-TSLIAGPKAQVEAIQKYIGAELKKLIPNASLIENCTKAELSKKKK-NH2 / II: Ac-LLLLLLLLLL (amide I:23-II:C) [BL10]
stability against trypsin degradation, comparison in words (bovine trypsin [7]; one-way ANOVA with Tukey's test): significantly slower than p3-P25
